In patent publication US8119651B2, “Compositions useful especially for treatment or prevention of metabolic syndrome” (Biotie Therapies Corp., priority 2004, dated 2012):
Where “and” joins values, the source holds several entries; their conditions need not be identical. Equal entries are not always repeated. Where two headings read alike, the source gives them in different places. Values belong to the compound of their own block, whether it stands above or below them.

How the values were obtained:
[1] = test system: mice; test: Systolic arterial blood pressure and heart rate, tail cuff method; assay type: in vivo; details: methylamine supplementation
Description: Systolic arterial blood pressure and heart rate were measured in all of the groups using the tail cuff method. […] A trend for elevated blood pressure was also found with the transgene alone.

[2] = test system: mice; test: Glycosylated hemoglobin (HbAlc) in blood of fasted mice; assay type: in vivo; details: oral methylamine supplementation, 57-59 week old mice
Description: The increases in blood glucose over fasting blood glucose levels at 30, 60, 90, and 120 minutes after glucose challenge (2.0 g IP glucose/kg body weight) are expressed as mean+SEM. (A) Glucose challenge of 26 week old non-transgenic (open symbols) and mTIEhVAP-1 transgenic mice (filled symbols) with normal tap water (solid lines) or with methylamine supplemented water (dashed lines). Significant effects on the rate of glucose clearance were identified by comparing the areas under the curve (AUC) of individual mice with an ANOVA (methylamine p=0.0002 and methylamine/transgene interaction p=0.046) and by comparing glucose levels at individual time points with unpaired Student's t-tests (asterisks, p<0.01 versus non-transgenic mice with normal water; crosses, p<0.02 versus non-transgenic mice with methylamine). (B) Glucose challenge of 10-12 week old transgenic mice with normal tap water (solid line) followed by 16 days of treatment with methylamine supplemented water (squares and dashed lines), and methylamine supplemented water as well as SSAO inhibitor injections (triangles and dashed lines). […] (C) The mean±SEM percent of glycosylated hemoglobin (HbAlc) was determined from the blood of fasted, 57-59 week old non-transgenic (white bars) and transgenic (black bars) mice with (gray strips) or without oral methylamine supplementation. […]

[3] = test system: mice; test: Aorta surface area positive for Oil Red O staining (atherosclerosis); assay type: in vivo; details: methylamine supplementation, versus untreated controls
Description: The percentage of aorta surface area positive for Oil Red O staining was determined for the mice in each group.

[4] = test system: mTIEhVAP-1 transgenic mice; test: Glucose challenge of mTIEhVAP-1 transgenic and non-transgenic mice; assay type: in vivo; details: methylamine supplemented water; 2.0 g IP glucose/kg
Description: The increases in blood glucose over fasting blood glucose levels at 30, 60, 90, and 120 minutes after glucose challenge (2.0 g IP glucose/kg body weight) are expressed as mean±SEM. FIG. 1A: Glucose challenge of 26 week old non-transgenic (open symbols) and mTIEhVAP-1 transgenic mice (filled symbols) with normal tap water (solid lines) or with methylamine supplemented water (dashed lines). FIG. 1B: Glucose challenge of 10-12 week old transgenic mice with normal tap water (solid line) followed by 16 days of treatment with methylamine supplemented water (squares and dashed lines), and methylamine supplemented water as well as SSAO inhibitor injections (triangles and dashed lines). FIG. 1C: The mean±SEM percent of glycosylated hemoglobin (HbAlc) was determined from the blood of fasted, 57-59 week old non-transgenic (white bars) and transgenic (black bars) mice with (gray strips) or without oral methylamine supplementation. […]
The increases in blood glucose over fasting blood glucose levels at 30, 60, 90, and 120 minutes after glucose challenge (2.0 g IP glucose/kg body weight) are expressed as mean+SEM. […] (C) The mean±SEM percent of glycosylated hemoglobin (HbAlc) was determined from the blood of fasted, 57-59 week old non-transgenic (white bars) and transgenic (black bars) mice with (gray strips) or without oral methylamine supplementation. […]

[5] = biological target: T1, amine oxidase, copper containing 3 (AOC3) (Homo sapiens, UniProt Q16853); test: Enzyme inhibiting activity of FP-1113 versus thiamine (FIG. 3)
T1 sequence (Q16853 1-763): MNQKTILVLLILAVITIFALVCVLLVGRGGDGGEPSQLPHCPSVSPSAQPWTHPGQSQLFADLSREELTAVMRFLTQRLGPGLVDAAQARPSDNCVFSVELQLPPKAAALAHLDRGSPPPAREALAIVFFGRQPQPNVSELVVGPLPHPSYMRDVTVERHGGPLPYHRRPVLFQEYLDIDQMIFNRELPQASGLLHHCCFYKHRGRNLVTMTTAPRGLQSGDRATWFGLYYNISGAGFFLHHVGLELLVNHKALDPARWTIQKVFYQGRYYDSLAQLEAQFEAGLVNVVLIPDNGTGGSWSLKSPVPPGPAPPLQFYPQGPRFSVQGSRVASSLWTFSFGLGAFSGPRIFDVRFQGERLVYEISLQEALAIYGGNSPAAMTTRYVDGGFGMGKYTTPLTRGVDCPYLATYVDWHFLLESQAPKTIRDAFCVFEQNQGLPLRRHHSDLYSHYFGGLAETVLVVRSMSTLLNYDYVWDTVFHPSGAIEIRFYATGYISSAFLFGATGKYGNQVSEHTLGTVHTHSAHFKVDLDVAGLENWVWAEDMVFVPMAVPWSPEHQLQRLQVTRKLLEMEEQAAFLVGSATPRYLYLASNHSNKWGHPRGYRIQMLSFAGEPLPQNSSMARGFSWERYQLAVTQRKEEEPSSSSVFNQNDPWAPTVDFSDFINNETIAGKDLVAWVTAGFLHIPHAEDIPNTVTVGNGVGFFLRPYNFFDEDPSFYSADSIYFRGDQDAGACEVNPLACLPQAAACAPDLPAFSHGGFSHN
Description: The enzyme inhibiting activity was tested as described above.

[6] = biological target: T2, SSAO activity of VAP-1 transfected CHO cells (Homo sapiens, UniProt Q16853); test: Fluorometric detection of SSAO-mediated H2O2 formation (Amplex Red); assay type: cell-based; details: for Inhibition of SSAO activity (controls): 1 mg/ml, VAP-1 transfected CHO cells
T2 construct: expressed in transfected cells; host or cells: CHO cells
T2 sequence (Q16853 1-763): T1 sequence (Q16853 1-763)
Description: Molecular Probes Europe BV), a highly sensitive and stable probe for H2O2. […] Catalytic reaction was initiated by addition of benzylamine as substrates and H2O2-detecting mixture containing horseradish peroxidase (final concentration 0.8 U/ml) and Amplex Red reagent (60 μM). The plates were incubated for 1-2 hours at 37° C. in the final volume of 250 μl, the bathing medium was clarified by centrifugation and placed in aliquots (200 μl) into white non-phosphorescent microplates (Cliniplate). Fluorescence intensity of the samples was measured (excitation, 545 nm; emission, 590 nm; Tecan ULTRA fluoropolarometer) and H2O2 concentration was calculated from calibration curves generated by serial dilutions of either standard H2O2 or resorufin, the product of the Amplex Red reaction (Molecular Probes).

[7] = biological target: T3, serum VAP-1/SSAO (Homo sapiens, UniProt Q16853); test: Serum VAP-1/SSAO enzymatic activity of volunteers before and after oral intake
T3 sequence (Q16853 27-763 limits assumed): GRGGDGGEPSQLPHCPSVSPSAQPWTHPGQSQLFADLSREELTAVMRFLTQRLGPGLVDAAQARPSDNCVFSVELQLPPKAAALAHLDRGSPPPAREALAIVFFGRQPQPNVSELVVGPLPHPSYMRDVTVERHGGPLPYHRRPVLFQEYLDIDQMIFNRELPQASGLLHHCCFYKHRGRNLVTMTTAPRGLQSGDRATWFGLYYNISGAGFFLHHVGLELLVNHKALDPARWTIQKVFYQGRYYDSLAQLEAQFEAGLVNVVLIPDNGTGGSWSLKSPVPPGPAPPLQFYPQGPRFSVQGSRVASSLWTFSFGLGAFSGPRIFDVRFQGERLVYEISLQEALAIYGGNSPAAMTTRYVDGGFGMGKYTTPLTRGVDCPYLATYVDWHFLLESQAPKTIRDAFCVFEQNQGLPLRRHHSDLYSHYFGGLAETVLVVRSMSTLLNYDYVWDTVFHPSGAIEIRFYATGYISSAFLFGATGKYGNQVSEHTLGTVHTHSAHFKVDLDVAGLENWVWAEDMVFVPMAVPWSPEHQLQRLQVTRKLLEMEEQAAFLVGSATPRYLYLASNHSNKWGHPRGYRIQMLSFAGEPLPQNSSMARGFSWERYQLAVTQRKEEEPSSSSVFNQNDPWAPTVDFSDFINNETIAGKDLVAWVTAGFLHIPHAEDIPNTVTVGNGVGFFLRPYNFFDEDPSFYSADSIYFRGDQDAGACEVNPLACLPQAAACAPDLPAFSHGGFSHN

[8] = biological target: serum VAP-1/SSAO (Homo sapiens, UniProt Q16853)
Description: Amine oxidase activity was assayed radiochemically using [7-^14C]-benzylamine hydrochloride (spec. act. 57 mCi/mmol, Amersham) as a substrate and 25 microliters of serum. […] Potential inhibition of serum VAP-1/SSAO enzymatic activity was measured in presence of indicated concentrations of thiamine. Finally, enzymatic activity of serum VAP-1/SSAO of six volunteers was measured before and after eating vitamin B1 100 mg/day for 5 to 9 days. Similarly serum VAP-1/SSAO activity of four volunteers eating benfothiamine 200 mg/day for four days was measured.

[9] = volunteers, 100 mg/day for 5 to 9 days

Compound: CN [methylamine]
- Heart rate [1]: did not affect heart rate
- Systolic arterial blood pressure [1]: significantly elevated blood pressure
- HbAlc levels [2]: decreased
- Percentage of lesion formation in aorta [3]: increased the percentage of lesion formation
- Glucose tolerance after glucose challenge [4]: enhance glucose tolerance

- SSAO inhibition compared with thiamine [5]: stronger SSAO-inhibitor than thiamine
Compound: Cc1c(CCO)sc[n+]1Cc1ccccc1N.Cl.[Cl-] [FP-1113, 3-(2-aminobenzyl)-5-(2-hydroxyethyl)-4-methyl-thiazolium Chloride Hydrochloride]

- Inhibition of SSAO activity (controls) [6]: did not inhibit the activity
Compound: CC1(C)S[C@@H]2[C@H](NC(=O)[C@H](N)c3ccccc3)C(=O)N2[C@H]1C(=O)O [ampicillin]

Compound: penicillin
- Inhibition of SSAO activity (controls) [6]: did not inhibit the activity

- Decrease of VAP-1 enzyme activity at the end of the experiment, mean of responders [7, 9]: 19%
- Volunteers responding [7, 9]: Four of the six volunteers responded
- Decrease of VAP-1 enzyme activity at the end of the experiment, individual responders ([7]; volunteers, 100 mg/day for 5 to 9 days, listed as vitamin B1): 25% and 2% and 32% and 16%
- Decrease of serum VAP-1/SSAO activity in vitro ([8]; 1 mg/ml): 87%
- Decrease of serum VAP-1/SSAO activity in vitro ([8]; 200 micrograms/ml): 32%
- Decrease of serum VAP-1/SSAO activity in vitro ([8]; 400 micrograms/ml): 39%
- Decrease of serum VAP-1/SSAO activity in vitro ([8]; 800 micrograms/ml): 70%
- inhibition at 63 µg/mL ([6]; CHO, thiamine 63 μg/ml, VAP-1 transfected cells): 10.5 ± 8.5%
- inhibition at 125 µg/mL ([6]; CHO, thiamine 125 μg/ml, VAP-1 transfected cells): 26.5 ± 11%
- inhibition at 175 µg/mL ([6]; CHO, thiamine 175 μg/ml, VAP-1 transfected cells): 35.5 ± 2.5%
- inhibition at 250 µg/mL ([6]; CHO, thiamine 250 μg/ml, VAP-1 transfected cells): 42 ± 2%
- inhibition at 375 µg/mL ([6]; CHO, thiamine 375 μg/ml, VAP-1 transfected cells): 47 ± 9%
- inhibition at 500 µg/mL ([6]; CHO, thiamine 500 μg/ml, VAP-1 transfected cells): 61.5 ± 2.5%
Compound: Cc1ncc(C[n+]2csc(CCO)c2C)c(N)n1 [Thiamine, thiamine]

- Decrease of SSAO activity, each individual ([7]; four volunteers, 200 mg/day for four days): 9% and 24% and 8% and 27%
Compound: C/C(=C(\CCOP(=O)(O)O)SC(=O)c1ccccc1)N(C=O)Cc1cnc(C)nc1N [benfothiamine, benfotiamine]
